The subject of the assay is male mice (strain ICR). In words: Formalin paw licking test in mice. The assay is classed as in vivo. The note with it: 10 mg/kg i.v. in saline, 15 minutes before sub-plantar 3% formalin; compared to vehicle control. On the procedure: The activity of the compounds in the in vitro screen was confirmed in vivo. Compound 103 was dissolved in saline and administrated to male mice (strain ICR) at 10 mg/kg i.v. in the tail vein. After 15 minutes, a 3% solution of formalin was administered sub-plantar and the time spent licking the paw was monitored in 5 minute segments over a 45 minute period. The experiment was conducted on 1–6 mice per group and compared to a control set (5 mice), which were given the vehicle alone prior to formalin injection. The first phase response was reduced by approximately 50%. The person of skill in the art would accept this test as predictive of therapeutic utility for analgesia.

One compound from patent US7084154B2, “2-(aminomethyl) arylamide analgesics” (Pharmacopeia Drug Disclovery, Inc., priority 2003, dated 2006) can be followed below.

As to `CC1c2cc(O)ccc2CCN1Cc1ccccc1C(=O)NCC/C=C/c1ccccc1` (stereo not shown) [Compound 103, 2-(7-hydroxy-1-methyl-3,4-dihydro-1H-isoquinolin-2-ylmethyl)-N-(4-phenyl-but-3-enyl)-benzamide], the “reduction of first phase response (time spent licking the paw)” value is reported as “approximately 50%”.
